For this test, the target named is T1, human TRPC6 (Homo sapiens, UniProt Q9Y210).
T1 construct: expressed in transfected cells
T1 sequence (Q9Y210 1-931): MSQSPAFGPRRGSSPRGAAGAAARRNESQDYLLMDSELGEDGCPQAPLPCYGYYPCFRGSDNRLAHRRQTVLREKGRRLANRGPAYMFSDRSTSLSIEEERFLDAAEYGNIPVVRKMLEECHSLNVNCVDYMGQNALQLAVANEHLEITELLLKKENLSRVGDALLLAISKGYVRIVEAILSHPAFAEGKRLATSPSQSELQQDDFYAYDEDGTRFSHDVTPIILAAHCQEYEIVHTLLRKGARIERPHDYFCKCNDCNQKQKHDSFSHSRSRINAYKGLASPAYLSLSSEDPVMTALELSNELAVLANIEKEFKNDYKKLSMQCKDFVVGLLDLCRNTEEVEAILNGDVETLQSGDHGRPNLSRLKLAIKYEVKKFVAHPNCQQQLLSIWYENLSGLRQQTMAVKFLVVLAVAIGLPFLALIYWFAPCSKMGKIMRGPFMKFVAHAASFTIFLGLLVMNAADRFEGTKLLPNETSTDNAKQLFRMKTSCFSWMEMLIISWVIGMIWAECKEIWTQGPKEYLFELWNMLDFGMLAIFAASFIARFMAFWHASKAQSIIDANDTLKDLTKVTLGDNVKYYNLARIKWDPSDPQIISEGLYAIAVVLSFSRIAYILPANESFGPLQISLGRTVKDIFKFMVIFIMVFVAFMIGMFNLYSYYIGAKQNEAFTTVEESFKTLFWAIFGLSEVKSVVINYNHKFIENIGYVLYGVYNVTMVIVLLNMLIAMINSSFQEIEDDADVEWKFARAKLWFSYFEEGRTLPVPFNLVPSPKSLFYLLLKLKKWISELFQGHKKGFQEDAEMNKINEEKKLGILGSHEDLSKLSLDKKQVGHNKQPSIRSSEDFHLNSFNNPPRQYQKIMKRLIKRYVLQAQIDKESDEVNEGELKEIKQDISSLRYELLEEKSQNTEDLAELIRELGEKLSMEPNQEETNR
Nature of the test: TRPC6 calcium flux assay (FLIPR, OAG-stimulated calcium influx). Format: cell-based. Particulars: HEK293 cells stably transfected with human TRPC6, read-out: hTRPC6 Potency. In short, it runs like this: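 HEK293 cells stably expressing human TRPC6, loaded with calcium dye 90–120 min at RT, then given compound for 25 min before OAG (50 uM final, 0.5% DMSO) in HEPES buffer pH 7.2 with 2 mM CaCl2. Background-subtracted FLIPR peak over 180 s normalized to OAG vs buffer; IC50 from dose plot.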

Some results are limits rather than exact numbers.

Consider `N#Cc1ccc(Cn2c(N3C[C@@H]4NCCO[C@H]4C3)nc3ccccc32)nc1` [Example 101, 6-((2-((4aS,7aS)-hexahydropyrrolo[3,4-b][1,4]oxazin-6(2H)-yl)-1H-benzo[d]imidazol-1-yl)methyl)nicotinonitrile], for which the IC50 was above 3750 nM.
The result for `N#Cc1ccc(Cn2c(N3CCC[C@@](N)(C(N)=O)C3)nc3ccccc32)nc1` [Example 102, (S)-3-amino-1-(1-((5-cyanopyridin-2-yl)methyl)-1H-benzo[d]imidazol-2-yl)piperidine-3-carboxamide] reads above 3750 nM.
As for `N#Cc1ccc(Cn2c(N3CCC[C@](N)(C(N)=O)C3)nc3ccccc32)nc1` [Example 103, (R)-3-amino-1-(1-((5-cyanopyridin-2-yl)methyl)-1H-benzo[d]imidazol-2-yl)piperidine-3-carboxamide], the figure is above 3750 nM; as for `N#Cc1ccc(Cn2c(N3CCC[C@@](N)(CO)C3)nc3ccccc32)nc1` [Example 104, (S)-6-((2-(3-amino-3-(hydroxymethyl)piperidin-1-yl)-1H-benzo[d]imidazol-1-yl)methyl)nicotinonitrile], 61.8 nM; as for `N#Cc1ccc(Cn2c(N3CCC[C@](N)(CO)C3)nc3ccccc32)nc1` [Example 105, (R)-6-((2-(3-amino-3-(hydroxymethyl)piperidin-1-yl)-1H-benzo[d]imidazol-1-yl)methyl)nicotinonitrile], 2480 nM.
As for `N#Cc1ccc(Cn2c(N3CC[C@H](F)[C@H](N)C3)nc3ccc(C(F)(F)F)cc32)nc1` [Example 106, 6-((2-((3R,4S)-3-amino-4-fluoro-1-piperidinyl)-6-(trifluoromethyl)-1H-benzimidazol-1-yl)methyl)-3-pyridinecarbonitrile], the figure is 0.45 nM; as for `N#Cc1ccc(Cn2c(N3CC[C@H](F)[C@H](N)C3)nc3cc(C(F)(F)F)ccc32)nc1` [Example 107, 6-((2-((3R,4S)-3-amino-4-fluoro-1-piperidinyl)-5-(trifluoromethyl)-1H-benzimidazol-1-yl)methyl)-3-pyridinecarbonitrile], 7.88 nM; as for `N#Cc1ccc(Cn2c(N3CCC(F)(F)[C@H](N)C3)nc3ccc(C(F)(F)F)cc32)nc1` [Example 108, 6-((2-((3R)-3-amino-4,4-difluoro-1-piperidinyl)-6-(trifluoromethyl)-1H-benzimidazol-1-yl)methyl)-3-pyridinecarbonitrile], 0.433 nM.
Turning to `N#Cc1ccc(Cn2c(N3CCC(F)(F)[C@H](N)C3)nc3cc(C(F)(F)F)ccc32)nc1` [Example 109, 6-((2-((3R)-3-amino-4,4-difluoro-1-piperidinyl)-5-(trifluoromethyl)-1H-benzimidazol-1-yl)methyl)-3-pyridinecarbonitrile], the IC50 worked out at 43.8 nM.
As for `Cc1ccc2c(c1)nc(N1CC[C@@H](F)[C@H](N)C1)n2Cc1ccc(C#N)cn1` [Example 110, 6-((2-((3R,4R)-3-amino-4-fluoro-1-piperidinyl)-5-methyl-1H-benzimidazol-1-yl)methyl)-3-pyridinecarbonitrile], the figure is 1.23 nM; as for `Cc1ccc2nc(N3CC[C@@H](F)[C@H](N)C3)n(Cc3ccc(C#N)cn3)c2c1` [Example 111, 6-((2-((3R,4R)-3-amino-4-fluoro-1-piperidinyl)-6-methyl-1H-benzimidazol-1-yl)methyl)-3-pyridinecarbonitrile], 0.787 nM; as for `Cc1cc2nc(N3CC[C@@H](F)[C@H](N)C3)n(Cc3ccc(C#N)cn3)c2cc1Cl` [Example 112, 6-((2-((3R,4R)-3-amino-4-fluoro-1-piperidinyl)-6-chloro-5-methyl-1H-benzimidazol-1-yl)methyl)-3-pyridinecarbonitrile], 0.281 nM.
For `Cc1cc2c(cc1Cl)nc(N1CC[C@@H](F)[C@H](N)C1)n2Cc1ccc(C#N)cn1` [Example 113, 6-((2-((3R,4R)-3-amino-4-fluoro-1-piperidinyl)-5-chloro-6-methyl-1H-benzimidazol-1-yl)methyl)-3-pyridinecarbonitrile], the IC50 is 0.286 nM.
The result for `Cc1cc2nc(N3CC[C@@H](F)[C@H](N)C3)n(Cc3ccc(C#N)cn3)c2cc1F` [Example 114, 6-((2-((3R,4R)-3-amino-4-fluoro-1-piperidinyl)-6-fluoro-5-methyl-1H-benzimidazol-1-yl)methyl)-3-pyridinecarbonitrile] reads 0.382 nM; that for `Cc1cc2c(cc1F)nc(N1CC[C@@H](F)[C@H](N)C1)n2Cc1ccc(C#N)cn1` [Example 115, 6-((2-((3R,4R)-3-amino-4-fluoro-1-piperidinyl)-5-fluoro-6-methyl-1H-benzimidazol-1-yl)methyl)-3-pyridinecarbonitrile], 0.446 nM.
As for `CN[C@H]1CCCN(c2nc3ccccc3n2Cc2ccc(C#N)cn2)C1` [Example 116, 6-((2-((3S)-3-(methylamino)-1-piperidinyl)-1H-benzimidazol-1-yl)methyl)-3-pyridinecarbonitrile], the figure is 7.79 nM.
As for `CN[C@@H]1CCCN(c2nc3ccccc3n2Cc2ccc(C#N)cn2)C1` [Example 117, 6-((2-((3R)-3-(methylamino)-1-piperidinyl)-1H-benzimidazol-1-yl)methyl)-3-pyridinecarbonitrile], the figure is above 3750 nM; as for `N#Cc1ccc(Cn2c(N3CC[C@@H](F)[C@H](N)C3)nc3ccc(OC(F)F)cc32)nc1` [Example 118, 6-((2-((3R,4R)-3-amino-4-fluoro-1-piperidinyl)-6-(difluoromethoxy)-1H-benzimidazol-1-yl)methyl)-3-pyridinecarbonitrile], 0.855 nM.
Regarding `N#Cc1ccc(Cn2c(N3CC[C@@H](F)[C@H](N)C3)nc3cc(OC(F)F)ccc32)nc1` [Example 119, 6-((2-((3R,4R)-3-amino-4-fluoro-1-piperidinyl)-5-(difluoromethoxy)-1H-benzimidazol-1-yl)methyl)-3-pyridinecarbonitrile], the IC50 stood at 1.94 nM.
The result for `COc1cccc2c1nc(N1CC[C@@H](F)[C@H](N)C1)n2Cc1ccc(C#N)cn1` [Example 120, 6-((2-((3R,4R)-3-amino-4-fluoro-1-piperidinyl)-4-methoxy-1H-benzimidazol-1-yl)methyl)-3-pyridinecarbonitrile] reads 3.21 nM; that for `Cc1cccc2c1nc(N1CC[C@@H](F)[C@H](N)C1)n2Cc1ccc(C#N)cn1` [Example 121, 6-((2-((3R,4R)-3-amino-4-fluoro-1-piperidinyl)-4-methyl-1H-benzimidazol-1-yl)methyl)-3-pyridinecarbonitrile], 5.59 nM.
The result for `NC(=O)c1cnc(Cn2c(N3CC[C@H](F)[C@H](N)C3)nc3ccc(C(F)(F)F)cc32)cn1` [Example 122, 5-((2-((3R,4S)-3-amino-4-fluoro-1-piperidinyl)-6-(trifluoromethyl)-1H-benzimidazol-1-yl)methyl)-2-pyrazinecarboxamide] reads 29.9 nM.
As for `NC(=O)c1cnc(Cn2c(N3CC[C@H](F)[C@H](N)C3)nc3cc(C(F)(F)F)ccc32)cn1` [Example 123, 5-((2-((3R,4S)-3-amino-4-fluoro-1-piperidinyl)-5-(trifluoromethyl)-1H-benzimidazol-1-yl)methyl)-2-pyrazinecarboxamide], the figure is 252 nM; as for `N#Cc1ccc(Cn2c(N3CC[C@@H](F)[C@H](N)C3)nc3cc(OC(F)(F)F)c(Cl)cc32)nc1` [Example 124, 6-((2-((3R,4R)-3-amino-4-fluoro-1-piperidinyl)-6-chloro-5-(trifluoromethoxy)-1H-benzimidazol-1-yl)methyl)-3-pyridinecarbonitrile], 0.741 nM; as for `N#Cc1ccc(Cn2c(N3CC[C@@H](F)[C@H](N)C3)nc3cc(Cl)c(OC(F)(F)F)cc32)nc1` [Example 125, 6-((2-((3R,4R)-3-amino-4-fluoro-1-piperidinyl)-5-chloro-6-(trifluoromethoxy)-1H-benzimidazol-1-yl)methyl)-3-pyridinecarbonitrile], 0.389 nM.
`N#Cc1ccc(Cn2c(N3CC[C@@H](F)[C@H](N)C3)nc3cc(C(F)(F)F)c(Cl)cc32)nc1` [Example 126, 6-((2-((3R,4R)-3-amino-4-fluoro-1-piperidinyl)-6-chloro-5-(trifluoromethyl)-1H-benzimidazol-1-yl)methyl)-3-pyridinecarbonitrile]: the IC50 came out at 0.48 nM.
Turning to `N#Cc1ccc(Cn2c(N3CC[C@@H](F)[C@H](N)C3)nc3cc(Cl)c(C(F)(F)F)cc32)nc1` [Example 127, 6-((2-((3R,4R)-3-amino-4-fluoro-1-piperidinyl)-5-chloro-6-(trifluoromethyl)-1H-benzimidazol-1-yl)methyl)-3-pyridinecarbonitrile], the IC50 was found to be 0.492 nM.

The record behind these values is patent US11332459B2 (TEIJIN PHARMA LIMITED, priority 2017, dated 2022).
